Here are results for 1 molecule from patent US12485179B2, “Cholecystokinin B receptor targeting for imaging and therapy” (Purdue Research Foundation, priority 2012, dated 2025).

The target of this experiment is T1, CCK2R (Homo sapiens, UniProt P32239).
T1 sequence (P32239 1-447): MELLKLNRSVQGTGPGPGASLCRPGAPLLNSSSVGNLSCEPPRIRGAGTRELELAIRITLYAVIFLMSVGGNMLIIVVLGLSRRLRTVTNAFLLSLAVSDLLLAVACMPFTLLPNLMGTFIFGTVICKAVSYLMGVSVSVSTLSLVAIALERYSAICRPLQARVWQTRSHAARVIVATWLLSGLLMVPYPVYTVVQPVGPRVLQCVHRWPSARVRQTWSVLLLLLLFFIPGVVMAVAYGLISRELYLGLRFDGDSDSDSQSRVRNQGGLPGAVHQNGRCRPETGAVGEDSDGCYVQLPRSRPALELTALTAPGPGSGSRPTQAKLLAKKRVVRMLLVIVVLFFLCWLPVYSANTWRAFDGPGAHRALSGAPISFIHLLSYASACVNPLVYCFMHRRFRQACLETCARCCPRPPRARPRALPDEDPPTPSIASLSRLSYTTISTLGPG
The experiment can be described thus: Binding of 99mTc conjugates to HEK-293 CCK2R cells (cell bound radioactivity). Set-up: expressed in transfected cells; host or cells: HEK-293, G418-selected, from Dr. Mark Hellmich (University of Texas at Galveston). As for the experimental part:
CRL-1, CRL-2, CRL-3 and CRL-4 were chelated to ^99mTc and tested for binding using two transfected cell lines of HEK-CCK2R (HEK-293 CCK2R) and HEK-CCK2R splice cell line (HEK CCK2i4svR), obtained from Dr. Mark Hellmich (University of Texas at Galveston). Cells were cultured in Dulbecco's modified Eagles (Gibco) supplemented with 10% Fetal Bovine Serum and G418 disulfate (SIGMA; 400 μg/ml), 1% penicillin/streptomycin at 37° C. in a humidified 95% air, 5% CO2 atmosphere.
Competition studies were performed using 100 fold excess of free Z-360 containing corresponding peptide linker and no chelating moiety. HEK 293 CCK2R and HEK CCK2i4svR were seeded onto 24 well plates and allowed to become confluent over 48-72 hours. Spent medium in each well was replaced with 0.5 ml fresh media containing 0.5% BSA and increasing concentrations of the test article. After incubating for 1 h at 37° C. cells were rinsed with incubation solution (2×1.0 ml) to remove any unbound radioactivity. Cells were then resuspended on 0.5 ml 0.25N NaOH and cell radioactivity was counted using a γ-counter. The dissociation constant (KD) was calculated using a plot of cell bound radioactivity versus the concentration of the radiotracer using Graphpad Prism 4 and assuming a non-cooperative single site binding equilibrium.

What is called Kd is the free concentration of one partner at which half of the binding sites on the other are occupied at equilibrium, for simple one-to-one binding.

Take `CC(C)(C)C(=O)CN1C(=O)[C@H](NC(=O)Nc2cccc(C(=O)NCCCCCCCC(=O)N[C@H](CCC(=O)O)C(=O)N[C@H](CCC(=O)NC[C@H](O)[C@@H](O)[C@H](O)[C@H](O)CO)C(=O)N[C@H](CCC(=O)O)C(=O)N[C@H](CCC(=O)NC[C@H](O)[C@@H](O)[C@H](O)[C@H](O)CO)C(=O)NC[C@@H]3[NH][99Tc]45[S]C[C@@H](C(=O)O)[N]4C(=O)[C@H](CC(=O)O)[N]5C3=O)c2)CN(C2CCCCC2)c2ccccc21` (stereo partly shown) [CRL-3 ^99mTc]: the dissociation constant (Kd) was 30 nM.
